Each structure is given as a SMILES string. Where two headings read alike, the source gives them in different places.

One test concerns MIA PaCa-2 cells. In words: Growth inhibition activity on KRAS-G12C mutant cell line (CellTiter-Glo 3D). The test is classed as cell-based, human. The settings on record: MIA PaCa-2, 3-day culture with compound. The method in brief: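 IC50 (nM) derived from inhibition of luminescence (CellTiter-Glo 3D) relative to compound-free wells. Cells were seeded in U-bottom plates, grown 1 day, then exposed to compound for 3 days at 37 °C with 0.2% final DMSO.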

In test [1] the target is T1, interaction between GMPPNP-bound recombinant K-Ras4B G12C mutant protein and cRAF RAS-binding domain (cRAF-RBD) (Homo sapiens, UniProt P01116, G12C).
T1 construct: His-tag (N)
In words: Inhibitory activity on interaction between KRAS G12C and cRAF (Alpha technology). A digest of the protocol: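 Alpha signal measured 1.5 h after adding cRAF-RBD (aa 50-132) and detection reagents to GMPPNP-bound KRAS G12C (aa 1-169) pretreated 1 h at 25° C with compound (pH 7.5 buffer). 0% inhibition = DMSO, 100% = GDP-loaded KRAS; IC50 by curve fit.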

Where [2] appears, read: Homo sapiens, MIA PaCa-2, 72 h, Table 3-1.
Setting [3] is: GMPPNP-bound KRAS G12C incubated with compound 25° C. 1 hour, Table 2-1, read-out: IC50.
[4] abbreviates: GMPPNP-bound KRAS G12C incubated with compound 25° C. 1 hour, Table 2, read-out: IC50.
The mark [5] stands for this setting: IC50, GMPPNP-bound KRAS G12C incubated with compound 25° C. 1 hour, Table 2-1.
The mark [6] stands for this setting: Homo sapiens, MIA PaCa-2, 72 h, Table 3.

T1 sequence (P01116 with tags, fused parts or gaps isoform P01116-2 G12C): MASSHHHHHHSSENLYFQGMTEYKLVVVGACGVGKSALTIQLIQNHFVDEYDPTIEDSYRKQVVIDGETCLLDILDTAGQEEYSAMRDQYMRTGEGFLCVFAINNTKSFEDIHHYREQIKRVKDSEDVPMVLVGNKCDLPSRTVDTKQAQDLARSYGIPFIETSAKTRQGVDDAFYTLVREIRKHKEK

The IC50 is the midpoint of a concentration-inhibition curve. As to `COCc1nc2c3c(c(C(F)(F)F)cc2n1C)-c1cccn2c(C(=O)c4cc(F)c(NC(=O)/C=C/CNC5(C)COC5)c(F)c4)cc(c12)CCO3` (single isomer, unassigned) [Example 99, (E)-N-(2,6-difluoro-4-(10-(methoxymethyl)-9-meth-yl-7-(trifluoromethyl)-13,14-dihydro-9H-imidazo[4″,5″:5′,6′]benzo-[1′,2′:2,3]oxocino[4,5,6-hi]indolizine-2-carbonyl)-phenyl)-4-((3-methyl-oxetan-3-yl)amino)-but-2-enamide], the concentration for half-maximal inhibition (IC50) in the test with MIA PaCa-2 cells (setting [2]) came out at 9.79 nM; in test [1] (setting [3]) it was 12.2 nM.
Regarding `COCc1nc2c3c(c(C(F)(F)F)cc2n1C)-c1cccn2c(C(=O)c4cc(F)c(NC(=O)/C=C/CNC5(C)COC5)c(F)c4)cc(c12)CCN3C` (single isomer, unassigned) [Example 92, (E)-N-(2,6-difluoro-4-(10-(methoxymethyl)-9,12-dimethyl-7-(trifluoromethyl)-9,12,13,14-tetrahydroimidazo[4″,5″:5′,6′]benzo[1′,2′:2,3]azocino[4,5,6-hi]indolizine-2-carbonyl)phenyl)-4-((3-methyloxetan-3-yl)amino)but-2-enamide], the half-inhibitory concentration (IC50) is 12.1 nM with MIA PaCa-2 cells (setting [2]) and 19.9 nM in test [1] (setting [3]).
For `CO[C@H]1CC[C@H](NC/C=C/C(=O)Nc2c(F)cc(C(=O)c3cc4c5c(cccn35)-c3c(C(F)(F)F)cc5c(nc(C)n5C)c3OC(C)C4)cc2F)CC1` (single isomer, unassigned) [Example 42-2, (E)-N-(2,6-difluoro-4-(9,10,13-trimethyl-7-(trifluoromethyl)-13,14-dihydro-9H-imidazo[4″,5″:5′,6′]benzo[1′,2′:2,3]oxocino[4,5,6-hi]indolizine-2-carbonyl)phenyl)-4-(((1r,4r)-4-methoxycyclohexyl)amino)but-2-enamide], the IC50 with MIA PaCa-2 cells (Table 3) was found to be 450 nM; in test [1] (setting [4]), 1100 nM.
As for `Cn1cnc2c3c(c(C(F)(F)F)cc21)-c1cccn2c(C(=O)c4cc(F)c(NC(=O)/C=C/CN5C6CCCC5COC6)c(F)c4)cc(c12)CCO3` [Example 221, (E)-4-(3-oxa-9-azabicyclo-[3.3.1]nonan-9-yl)-N-(2,6-difluoro-4-(9-methyl-7-(trifluoromethyl)-13,14-dihydro-9H-imidazo[4″,5″: 5′,6′]benzo[1′,2′:2,3]oxo-cino[4,5,6-hi]indolizine-2-carbonyl)phenyl)but-2-enamide], the IC50 is 20.9 nM in the test on MIA PaCa-2 cells (setting [2]) and 39.2 nM in test [1] (setting [3]).
In the case of `COc1cc(N2CCCC2=O)cc2c1-c1cccn3c(C(=O)c4cc(F)c(NC(=O)/C=C/CN[C@H]5CCOC5)c(F)c4)cc(c13)CCN2C` [Example 191, (S,E)-N-(2,6-difluoro-4-(9-methoxy-5-methyl-7-(2-oxopyrrolidin-1-yl)-4,5-dihydro-3H-benzo-[2,3]azocino[4,5,6-hi]-indolizine-1-carbonyl)-phenyl)-4-((tetrahydro-furan-3-yl)amino)but-2-enamide], the IC50 in the test on MIA PaCa-2 cells (setting [2]) turned out to be 167 nM; in test [1] (setting [3]), 97.1 nM.
For `Cc1cc2c(nc(C)n2C)c2c1-c1cccc3c(C(=O)c4cc(F)c(NC(=O)/C=C/CN5CCC[C@H]5CO)c(F)c4)cn(c13)CCN2C` [Example 114, (S,E)-N-(2,6-difluoro-4-(6,8,9,11-tetramethyl-8,11,12,13-tetrahydro-imidazo[4″,5″:5′,6′]benzo-[1′,2′:5,6][1,4]diazocino-[7,8,1-hi]indole-2-carbon-yl)phenyl)-4-(2-(hydroxy-methyl)pyrrolidin-1-yl)-but-2-enamide], the IC50 worked out at 64.5 nM with MIA PaCa-2 cells (setting [2]) and 61.1 nM in test [1] (setting [5]).
Taken in the same sequence, the figures for `CO[C@H]1CC[C@H](NC/C=C/C(=O)Nc2c(F)cc(C(=O)c3cn4c5c(cccc35)-c3c(C(F)(F)F)cc5c(nc(C)n5C)c3N(C)C(=O)C4)cc2F)CC1` [Example 76, (E)-N-(2,6-difluoro-4-(8,9,11-trimethyl-12-oxo-6-(trifluoromethyl)-8,11,12,13-tetrahydro-imidazo[4″,5″:5′,6′]benzo-[1′,2′:5,6][1,4]diazocino-[7,8,1-hi]indole-2-carbon-yl)phenyl)-4-(((1r,4r)-4-methoxycyclohexyl)-amino)but-2-enamide] were 7.14 nM and 22.2 nM.
For the molecule `Cn1cnc2c3c(c(C(F)(F)F)cc21)-c1cccn2c(C(=O)c4cc(F)c(NC(=O)/C=C/CN5CC6COCC5C6)c(F)c4)cc(c12)CCO3` (stereo not shown) [Example 230, (E)-4-(3-oxa-6-azabicyclo-[3.2.1]octan-6-yl)-N-(2,6-difluoro-4-(9-methyl-7-(trifluoromethyl)-13,14-dihydro-9H-imidazo-[4″,5″:5′,6′]benzo[1′,2′: 2,3]oxocino[4,5,6-hi]-indolizine-2-carbonyl)-phenyl)but-2-enamide], the IC50 turned out to be 14.4 nM in the test on MIA PaCa-2 cells (setting [2]) and 20.1 nM in test [1] (setting [3]).
Take `Cc1nc2c3c(c(C(F)(F)F)cc2n1C)-c1cccn2c(C(=O)c4ccc(NC(=O)/C=C/CNC5(C)COC5)c(F)c4)cc(c12)CCO3` [Example 68, (E)-N-(4-(9,10-dimethyl-7-(trifluoromethyl)-13,14-dihydro-9H-imidazo-[4″,5″:5′,6′]benzo[1′,2′: 2,3]oxocino[4,5,6-hi]-indolizine-2-carbonyl)-2-fluorophenyl)-4-((3-meth-yloxetan-3-yl)amino)but-2-enamide]: the IC50 in the test on MIA PaCa-2 cells (setting [2]) was 16.4 nM; in test [1] (setting [3]) it was 91.2 nM.
In the same order, the values of `COCc1nc2c3c(c(C(F)(F)F)cc2n1C)-c1cccn2c(C(=O)c4cc(F)c(NC(=O)/C=C/CNC5(C)CC5)c(F)c4)nc(c12)CCN3C` [Example 185, (E)-N-(2,6-difluoro-4-(9-(methoxymethyl)-8,11-dimethyl-6-(trifluorometh-yl)-8,11,12,13-tetrahydro-1,2a,8,10,11-pentaaza-cycloocta[1,2,3-cd:5,4-e′]diindene-2-carbonyl)-phenyl)-4-((1-methyl-cyclopropyl)amino)but-2-enamide] are 75.7 nM and 40.8 nM.
Consider `CO[C@H]1CC[C@H](NC/C=C/C(=O)Nc2c(F)cc(C(=O)c3cc4c5c(cccn35)-c3c(C)cc5c(nc(C)n5C)c3N(C)CC4)cc2F)CC1` (single isomer, unassigned) [Example 69, (E)-N-(2,6-difluoro-4-(7,9,10,12-tetramethyl-9,12,13,14-tetrahydro-imidazo[4″,5″:5′,6′]benzo-[1′,2′:2,3]azocino[4,5,6-hi]indolizine-2-carbonyl)-phenyl)-4-(((1r,4r)-4-methoxycyclohexyl)-amino)but-2-enamide], for which the half-maximal inhibitory concentration (IC50) is 15.5 nM in the test on MIA PaCa-2 cells (setting [2]) and 19.8 nM in test [1] (setting [3]).
On to `Cn1cnc2c3c(c(C(F)(F)F)cc21)-c1cccn2c(C(=O)c4cc(F)c(NC(=O)/C=C/CN5C6CCC5CC6)c(F)c4)cc(c12)CCO3` [Example 236, (E)-4-(7-azabicyclo[2.2.1]-heptan-7-yl)-N-(2,6-difluoro-4-(9-methyl-7-(trifluoromethyl)-13,14-dihydro-9H-imidazo-[4″,5″:5′,6′]benzo[1′,2′: 2,3]oxocino[4,5,6-hi]-indolizine-2-carbonyl)-phenyl)but-2-enamide], for which the figures for the IC50 (in the test on MIA PaCa-2 cells (setting [2]); in test [1] (setting [3])) were 4.03 nM and 16.5 nM, respectively.
`Cc1nc2c3c(c(C(F)(F)F)cc2n1C)-c1cccn2c(C(=O)c4cc(F)c(NC(=O)/C=C/CNC5(C)CC5)c(F)c4)cc(c12)CCO3` [Example 35]: the concentration for half-maximal inhibition (IC50) came to 14 nM in the test on MIA PaCa-2 cells (setting [6]) and 13 nM in test [1] (setting [4]).
`Cc1nc2c3c(c(C(F)(F)F)cc2n1C)-c1cccn2c(C(=O)c4cc(F)c(NC(=O)/C=C/CNC5CCOCC5)c(F)c4)cc(c12)CCO3` [Example 34]: the IC50 amounted to 7 nM in the test with MIA PaCa-2 cells (setting [6]) and 12 nM in test [1] (setting [4]).
With `CO[C@H]1CC[C@H](NC/C=C/C(=O)Nc2c(F)cc(C(=O)c3cn4c5c(cccc35)-c3c(C(F)(F)F)cc5c(nc(C)n5C)c3CCCC4)cc2F)CC1` [Example 29, (E)-N-(4-(8,9-dimethy 1-6-(trifluoromethyl)-11,12,13,14-tetrahydro-8H-imidazo[4″,5″:3′,4′]benzo[1′,2:4,5]azonino[3,2,1-hi]indole-2-carbonyl)-2,6-difluorophenyl)-4-(((1r,4r)-4-methoxycyclohexyl)amino)but-2-enamide], the IC50 in the test on MIA PaCa-2 cells (setting [6]) amounted to 53 nM; in test [1] (IC50, GMPPNP-bound KRAS G12C incubated with compound 25° C. 1 hour, Table 2), 220 nM.
As to `CN1CCc2nc(C(=O)c3cc(F)c(NC(=O)/C=C/CN[C@H]4CCOC4)c(F)c3)n3cccc(c23)-c2c(C(F)(F)F)cc3c(ncn3C)c21` (single isomer, unassigned) [Example 167], the IC50 in the test with MIA PaCa-2 cells (setting [2]) worked out at 16.4 nM; in test [1] (setting [3]) it was 27.9 nM.
As to `Cn1cnc2c3c(c(C(F)(F)F)cc21)-c1cccc2c(C(=O)c4cc(F)c(NC(=O)/C=C/CNC5(C)COC5)c(F)c4)cn(c12)CCO3` [Example 80, (E)-N-(2,6-difluoro-4-(8-methyl-6-(trifluorometh-yl)-12,13-dihydro-8H-imidazo[4″,5″:3′,4′]benzo-[1′,2′:7,8][1,4]oxazocino-[6,5,4-hi]indole-2-carbon-yl)phenyl)-4-((3-methyl-oxetan-3-yl)amino)but-2-enamide], the half-inhibitory concentration (IC50) was found to be 22.2 nM in the test with MIA PaCa-2 cells (setting [2]) and 28.3 nM in test [1] (setting [5]).

(Values after patent US20240262842A1, “SMALL MOLECULE INHIBITORS OF KRAS G12C MUTANT” (Merck Sharp & Dohme LLC, priority 2021, published 2024).)
